pIC50: −log10 of the molar value. Where a name gives a salt, the structure may show the parent alone. Read-outs that look alike come from different tables or passages of the source.
What was measured:
adenosine receptor [1] = test: adenosine receptor antagonism assayed by the procedure described in Proc. Natl. Acad. Sci. USA, 77, 5547 (1980); assay type: binding; details: procedure of Proc. Natl. Acad. Sci. USA, 77, 5547 (1980)
Description: The relevant teachings of this manuscript are incorporated herein by reference.

adenosine receptor [2] = details: *Results reported in Proc. Natl. Acad. Sci. USA, 77, 5547(1980); cited from earlier work

| Structure (SMILES) | pIC50 (adenosine receptor [1]) | pIC50 (adenosine receptor [2]) |
| --- | --- | --- |
| CCn1c(=O)c2[nH]c(-c3cccc(S(=O)(=O)NCCN(C)C)c3)nc2n(CC)c1=O [C2 H5, C2 H5, H, 3-SO2 NH(CH2)2 N(CH3)2, 3-(1,3-Diethyl-2,3,6,7-tetrahydro-2,6,-dioxo-1H-purin-8-yl)-N-[2-(dimethylamino)ethyl]benzenesulfonamide] | 6.26 |  |
| CCn1c(=O)c2[nH]c(-c3cccc(S(=O)(=O)O)c3)nc2n(CC)c1=O [C2 H5, C2 H5, H, 3-SO3 K, 3-(1,3-diethyl-2,3,6,7-tetrahydro-2,6-dioxo-1H-purin-8-yl)benzenesulfonic acid potassium salt] | 4.43 |  |
| CCn1c(=O)c2[nH]c(-c3ccc(S(=O)(=O)N4CCN(C)CC4)cc3)nc2n(CC)c1=O [C2 H5, C2 H5, H, 4-SO2 N(CH2 CH2)2 NCH3, 1-[[4-(1,3-Diethyl-2,3,6,7-tetrahydro-2,6,-dioxo-1H-purin-8-yl)phenyl]sulfonyl]-4-methyl-piperazine] | 6.82 |  |
| CCn1c(=O)c2[nH]c(-c3ccc(S(=O)(=O)N4CCOCC4)cc3)nc2n(CC)c1=O [C2 H5, C2 H5, H, 4-SO2 N(CH2 CH2)2 O, 4-[[4-(1,3-Diethyl-2,3,6,7-tetrahydro-2,6-dioxo-1H-purin-8-yl)phenyl]sulfonyl]morpholine] | 6.52 |  |
| CCn1c(=O)c2[nH]c(-c3ccc(S(N)(=O)=O)cc3)nc2n(CC)c1=O [C2 H5, C2 H5, H, 4-SO2 NH2, 4-(1,3-diethyl-2,3,6,7-tetrahydro-2,6-dioxo-1H-purin-8-yl)benzenesulfonamide] | 7.30 |  |
| CCn1c(=O)c2[nH]c(-c3ccc(S(=O)(=O)NCCCN(C)C)cc3)nc2n(CC)c1=O [C2 H5, C2 H5, H, 4-SO2 NH(CH2)3 N(CH3)2, 4-(1,3-Diethyl-2,3,6,7-tetrahydro-2,6-dioxo-1H-purin-8-yl)-N-[3-(dimethylamino)propyl]benzenesulfonamide] | 7.15 |  |
| CCn1c(=O)c2[nH]c(-c3ccc(S(=O)(=O)O)cc3)nc2n(CC)c1=O [C2 H5, C2 H5, H, 4-SO3 K] | 5.31 |  |
| Cn1c(=O)c2[nH]c(-c3ccc(S(=O)(=O)O)cc3)nc2n(C)c1=O [CH3, CH3, H, 4-SO3 H, 4-(1,3-dimethyl-2,3,6,7-tetrahydro-2,6-dioxo-1H-purin-8-yl)benzenesulfonicacid] |  | 4.70 |
| CCCn1c(=O)c2[nH]c(-c3ccc(S(=O)(=O)NCCN(C)C)cc3)nc2n(CCC)c1=O [N-[2-(Dimethylamino)ethyl]-4-(2,3,6,7-tetrahydro-2,6-dioxo-1,3-dipropyl-1H-purin-8-yl)benzenesulfonamide] | 8.00 |  |
| CCCn1c(=O)c2[nH]c(-c3ccc(S(=O)(=O)O)cc3)nc2n(CCC)c1=O [n-C3 H7, n-C3 H7, H, 4-SO3 K, 4-(1,3-dipropyl-2,3,6,7-tetrahydro-2,6-dioxo-1H-purin-8-yl)benzenesulfonic acid potassium salt] | 7.00 |  |
| Cn1c(=O)c2[nH]cnc2n(C)c1=O [theophylline] |  | 4.82 |
